ChEMBL document CHEMBL4825721, “Dual Glycolate Oxidase/Lactate Dehydrogenase A Inhibitors for Primary Hyperoxaluria” (ACS Med Chem Lett, 2021)
Active and inactive are the calls of the source. The rule behind the calls is not given here.

Tests used:
[1] = target: L-lactate dehydrogenase A chain (Homo sapiens, UniProt P00338); assay: Inhibition of recombinant human LDHA expressed in BL21 gold (DE3) using sodium pyruvate as substrate preincubated for 10 mins followed by sodium pyruvate and […] addition
[2] = target: T1, L-lactate dehydrogenase A chain (Mus musculus, UniProt P06151); assay: Inhibition of LDHA in wild type CD1 mouse primary hepatocyte assessed as inhibition of lactate production using pyruvate as substrate measured after 30 mins by LC-MS analysis; assay type: tissue-based
[3] = target: T1, L-lactate dehydrogenase A chain; assay: Inhibition of recombinant mouse LDHA expressed in BL21 gold (DE3) using sodium pyruvate as substrate preincubated for 10 mins followed by sodium pyruvate and […] addition
2-Hydroxyacid oxidase 1 [4] = target: T2, 2-Hydroxyacid oxidase 1 (Homo sapiens, UniProt Q9UJM8); assay: Inhibition of recombinant human GOX expressed in Escherichia coli C41 (DE3) using glycolate as substrate preincubated for 10 mins followed by substrate addition measured by Amplex red and horseradish peroxidase based fluorescence assay
T2 sequence (Q9UJM8 whole entry): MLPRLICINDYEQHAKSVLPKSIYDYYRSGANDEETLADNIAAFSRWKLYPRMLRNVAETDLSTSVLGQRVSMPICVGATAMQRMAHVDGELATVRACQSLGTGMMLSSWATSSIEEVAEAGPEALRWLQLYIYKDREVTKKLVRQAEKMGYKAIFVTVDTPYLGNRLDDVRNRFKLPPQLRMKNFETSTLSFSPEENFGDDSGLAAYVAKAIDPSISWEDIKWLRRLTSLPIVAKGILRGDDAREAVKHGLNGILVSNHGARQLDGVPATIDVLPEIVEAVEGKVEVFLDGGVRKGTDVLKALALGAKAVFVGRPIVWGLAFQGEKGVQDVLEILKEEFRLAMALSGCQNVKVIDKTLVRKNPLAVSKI

Hydroxyacid oxidase 1 = target: T3, Hydroxyacid oxidase 1 (Sus scrofa, UniProt I3LVF1); assay: Inhibition of pig HAO1 in presence of NADH by spectrometry analysis
T3 sequence (I3LVF1 whole entry): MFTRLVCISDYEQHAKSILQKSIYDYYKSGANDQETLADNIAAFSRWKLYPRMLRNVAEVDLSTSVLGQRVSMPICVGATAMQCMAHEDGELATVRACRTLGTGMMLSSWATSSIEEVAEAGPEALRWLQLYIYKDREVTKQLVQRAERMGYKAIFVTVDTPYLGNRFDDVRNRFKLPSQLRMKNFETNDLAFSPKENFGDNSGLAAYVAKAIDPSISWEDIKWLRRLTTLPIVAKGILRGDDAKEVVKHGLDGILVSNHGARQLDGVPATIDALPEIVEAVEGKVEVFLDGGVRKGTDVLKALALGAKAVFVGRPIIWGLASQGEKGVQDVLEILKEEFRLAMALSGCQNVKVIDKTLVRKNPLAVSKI

[5] = Drug distribution in C57BL/6N mouse liver at 100 mg/kg, po measured after 6 hrs by LC-MS/MS analysis; assay type: ADME, organism-based; details: in vivo
Mus musculus = assay: In vivo inhibition of GOX/LDHA in C57BL/6N mouse assessed as increase in plasma glycolate levels at 100 mg/kg, po measured after 6 hrs; assay type: functional, organism-based
2-Hydroxyacid oxidase 1 [6] = target: T4, 2-Hydroxyacid oxidase 1 (Mus musculus, UniProt Q9WU19); assay: Inhibition of recombinant mouse GOX expressed in Escherichia coli C41 (DE3) using glycolate as substrate preincubated for 10 mins followed by substrate addition measured by Amplex red and horseradish peroxidase based fluorescence assay
T4 sequence (Q9WU19 whole entry): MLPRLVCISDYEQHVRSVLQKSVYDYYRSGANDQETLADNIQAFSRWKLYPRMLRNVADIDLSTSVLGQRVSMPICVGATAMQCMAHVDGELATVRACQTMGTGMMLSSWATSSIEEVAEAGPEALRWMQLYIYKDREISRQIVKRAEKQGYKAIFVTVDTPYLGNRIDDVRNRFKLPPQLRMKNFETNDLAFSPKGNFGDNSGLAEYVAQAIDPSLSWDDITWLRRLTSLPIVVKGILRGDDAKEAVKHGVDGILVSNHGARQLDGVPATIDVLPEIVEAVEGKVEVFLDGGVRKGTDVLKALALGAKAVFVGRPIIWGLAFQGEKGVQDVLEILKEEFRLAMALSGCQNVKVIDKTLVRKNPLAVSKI

[7] = Drug distribution in C57BL/6N mouse liver at 100 mg/kg, po measured after 2 hrs by LC-MS/MS analysis; assay type: ADME, organism-based; details: in vivo
[8] = In vivo inhibition of GOX/LDHA in C57BL/6N mouse assessed as increase in plasma glycolate levels at 100 mg/kg, po measured after 2 hrs; assay type: functional
[9] = Inhibition of GOX/LDHA in Ag xt knockdown PH1 mouse primary hepatocyte assessed as reduction of oxalate production in the presence of glycolate measured after 2 hrs by ICMS analysis; assay type: tissue-based
2-Hydroxyacid oxidase 1 [10] = target: T4, 2-Hydroxyacid oxidase 1; assay: Non competitive inhibition of mouse glycolate oxidase in hyperoxaluric-Agxt knockdown mouse primary hepatocyte assessed as reduction in oxalate production in the presence of glycolate measured upto 72 hrs by enzymatic assay; assay type: tissue-based

| Structure (SMILES) | IC50 [1] [nM] | IC50 [2] [nM] | IC50 [3] [nM] | IC50 (2-Hydroxyacid oxidase 1 [4]) [nM] | IC50 [9] [nM] | further results |
| --- | --- | --- | --- | --- | --- | --- |
| O=C1NC(=O)C(c2ccc(-c3ccc(Br)cc3)cc2)=C1O | – | – | – | – | – | IC50 (Hydroxyacid oxidase 1): 87 nM |
| NS(=O)(=O)c1ccc(Cc2c(-c3ccc(F)c(-c4cccc(Oc5[nH]nnc5C(=O)O)c4)c3)nn(-c3nc(C(=O)O)cs3)c2CC2CC2)cc1F | 0.1 | 143 | 0.2 | 0.9 | – | Drug uptake [5]: Not Active; inhibition (Mus musculus): inactive |
| NS(=O)(=O)c1ccc(Cc2c(-c3ccc(F)c(Oc4[nH]nnc4C(=O)O)c3)nn(-c3nc(C(=O)O)cs3)c2CC2CC2)cc1F | 0.4 | 732 | 0.3 | 11 | – | – |
| O=C(O)c1[nH]nnc1Sc1ccc(Cl)cc1 | – | – | – | 6.7 | 149 | IC50 (2-Hydroxyacid oxidase 1 [6]): 14.6 nM; Drug uptake [7]: Active; fold change (FC) [8]: 4 |
| NS(=O)(=O)c1ccc(Cc2c(-c3cccc(-c4ccccc4)c3)nn(-c3nc(C(=O)O)cs3)c2CC2CC2)cc1 | – | – | 0.1 | – | 181 | – |
| NS(=O)(=O)c1ccc(Cc2c(-c3cccc(Sc4[nH]nnc4C(=O)O)c3)nn(-c3nc(C(=O)O)cs3)c2CC2CC2)cc1F | 0.5 | 136 | 0.7 | 4.7 | 88 | IC50 (2-Hydroxyacid oxidase 1 [6]): 7.7 nM; Drug uptake [5]: Not Active; inhibition (Mus musculus): inactive |
| O=C(O)c1nnsc1Sc1ccc(Cl)cc1 | – | – | – | – | – | Ki (2-Hydroxyacid oxidase 1 [10]): 4500 nM |

Continued, in another order:

| IC50 [1] [nM] | IC50 [2] [nM] | IC50 [3] [nM] | IC50 (2-Hydroxyacid oxidase 1 [4]) [nM] | Structure (SMILES) | IC50 [9] [nM] | further results |
| --- | --- | --- | --- | --- | --- | --- |
| 0.07 | 198 | 0.4 | 1.2 | NS(=O)(=O)c1ccc(Cc2c(-c3ccc(F)c(-c4ccc(Oc5nn[nH]c5C(=O)O)cc4)c3)nn(-c3nc(C(=O)O)cs3)c2CC2CC2)cc1F | – | – |
| 0.3 | 230 | 0.2 | 1.1 | NS(=O)(=O)c1ccc(Cc2c(-c3ccc(F)c(-c4ccc(Sc5nn[nH]c5C(=O)O)cc4)c3)nn(-c3nc(C(=O)O)cs3)c2CC2CC2)cc1F | – | – |
| 0.3 | 170 | 0.4 | 3.6 | NS(=O)(=O)c1ccc(Cc2c(-c3ccc(F)c(-c4ccc(-c5nn[nH]c5C(=O)O)cc4)c3)nn(-c3nc(C(=O)O)cs3)c2CC2CC2)cc1F | – | – |
